From the supplement of paper PMC10307832

Assays:
Assay in all cases: relative viability (nuclei count vs DMSO), 5 days (fraction); higher = more cells survive
[1] = compound: COc1cc2ncn(-c3cc(OCc4ccccc4C(F)(F)F)c(C(N)=O)s3)c2cc1OC + C[C@@H](Oc1cc(-c2cnn(C3CCNCC3)c2)cnc1N)c1c(Cl)ccc(F)c1Cl [Crizotinib] (partner 1 µM)
In short: (§1)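 Each reported value is a median over duplicate plates. It expresses relative viability: treated-well nuclei count divided by vehicle-well nuclei count. Lung cancer cell lines in 1536-well plates were dosed by pin tool a day after seeding, alone with one drug or with a fixed anchor-drug dose plus five library-drug doses (not always all listed) in √10 steps, and nuclei were counted after 5 days.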

[2] = compound: COc1cc2ncn(-c3cc(OCc4ccccc4C(F)(F)F)c(C(N)=O)s3)c2cc1OC + CC(=O)Nc1cccc(-n2c(=O)n(C3CC3)c(=O)c3c(Nc4ccc(I)cc4F)n(C)c(=O)c(C)c32)c1 [Trametinib] (partner 0.02 µM)
In short: as §1

[3] = compound: COc1cc2ncn(-c3cc(OCc4ccccc4C(F)(F)F)c(C(N)=O)s3)c2cc1OC + N=C(N)NC(=N)NCCc1ccccc1 [Phenformin] (partner 250 µM)
In short: as §1

[4] = compound: COc1cc2ncn(-c3cc(OCc4ccccc4C(F)(F)F)c(C(N)=O)s3)c2cc1OC + COc1cccc2cc(-c3nc([C@H]4CC[C@H](C(=O)O)CC4)n4ncnc(N)c34)[nH]c12 [OSI-027] (partner 0.5 µM)
In short: as §1

Cell Line | relative viability ([1]; first compound 0.05 µM) | relative viability ([1]; first compound 0.1581 µM) | relative viability ([1]; first compound 0.5 µM) | relative viability ([1]; first compound 1.581 µM) | relative viability ([1]; first compound 5 µM) | relative viability ([2]; first compound 0.05 µM) | relative viability ([2]; first compound 0.1581 µM) | relative viability ([2]; first compound 0.5 µM) | relative viability ([2]; first compound 1.581 µM) | relative viability ([2]; first compound 5 µM) | relative viability ([3]; first compound 0.05 µM) | relative viability ([3]; first compound 0.1581 µM) | relative viability ([3]; first compound 0.5 µM) | relative viability ([3]; first compound 1.581 µM) | relative viability ([3]; first compound 5 µM) | relative viability ([4]; first compound 0.05 µM) | relative viability ([4]; first compound 0.1581 µM) | relative viability ([4]; first compound 0.5 µM) | relative viability ([4]; first compound 5 µM) | relative viability ([4]; first compound 1.581 µM)
201T | 1.05 | 1.08 | 0.967 | 0.878 | 0.293 | 0.707 | 0.728 | 0.691 | 0.647 | 0.301 | 0.482 | 0.252 | 0.413 | 0.242 | 0.205 | 0.755 | 0.699 | 0.672 | 0.369 | 
A-427 | 0.917 | 0.826 | 0.587 | 0.163 | 0.124 | 0.833 | 0.52 | 0.59 | 0.336 | 0.187 | 0.336 | 0.277 | 0.25 | 0.151 | 0.0968 | 0.54 | 0.339 | 0.432 | 0.114 | 0.158
ABC-1 | 1.34 | 0.988 | 0.875 | 0.152 | 0.291 |  |  |  |  |  | 0.239 | 0.255 | 0.226 | 0.172 | 0.181 | 0.629 | 0.437 | 0.248 | 0.191 | 0.207
BEN | 0.814 | 0.839 | 0.687 | 0.268 | 0.526 | 1.16 | 1.03 | 0.954 | 0.546 | 0.52 | 0.262 | 0.28 | 0.217 | 0.218 | 0.206 | 0.272 | 0.307 | 0.278 | 0.233 | 0.205
CAL-12T | 0.705 | 0.377 | 0.207 | 0.126 | 0.124 | 0.387 | 0.278 | 0.272 | 0.178 | 0.161 | 0.524 | 0.339 | 0.21 | 0.153 | 0.138 | 0.535 | 0.411 | 0.149 | 0.141 | 0.129
COR-L23 | 0.667 | 0.671 | 0.3 | 0.118 | 0.12 | 0.591 | 0.286 | 0.27 | 0.105 | 0.0781 | 0.464 | 0.385 | 0.201 | 0.104 | 0.0889 | 0.697 | 0.644 | 0.679 | 0.0946 | 0.117
COR-L 105 | 0.978 | 0.831 | 0.658 | 0.215 | 0.264 | 0.446 | 0.436 | 0.438 | 0.353 | 0.326 | 0.426 | 0.441 | 0.353 | 0.29 | 0.221 | 0.591 | 0.823 | 0.526 | 0.211 | 0.298
Calu-6 | 0.778 | 0.755 | 0.288 | 0.107 | 0.106 |  |  |  |  |  |  |  |  |  |  |  |  |  |  | 
ChaGo-K-1 | 1.07 | 0.944 | 0.831 | 0.434 | 0.38 | 1.01 | 0.907 | 0.661 | 0.267 | 0.194 | 0.638 | 0.476 | 0.49 | 0.163 | 0.128 | 0.622 | 0.531 | 0.32 | 0.134 | 0.182
EKVX | 1.04 | 1.04 | 0.731 | 0.225 | 0.563 | 0.36 | 0.307 | 0.365 | 0.173 | 0.201 | 0.236 | 0.151 | 0.188 |  | 0.197 | 0.653 | 0.69 | 0.491 | 0.449 | 
EMC-BAC-2 | 0.893 | 0.855 | 0.789 | 0.439 | 0.154 | 0.977 | 0.689 | 0.872 | 0.629 | 0.298 | 0.545 | 0.528 | 0.465 | 0.215 | 0.142 | 0.37 | 0.429 | 0.29 | 0.172 | 0.194
EPLC-272H | 0.86 | 0.709 | 0.323 | 0.0912 | 0.134 | 0.285 | 0.234 | 0.216 | 0.154 | 0.163 |  | 0.323 | 0.151 | 0.135 | 0.15 |  | 0.277 | 0.225 | 0.136 | 0.163
H3255 | 0.777 | 0.981 | 0.574 | 0.238 | 0.229 | 0.609 | 0.545 | 0.568 | 0.411 | 0.301 | 0.365 | 0.37 | 0.282 |  | 0.304 | 0.599 | 0.536 | 0.485 | 0.34 | 
HARA | 1.18 | 0.981 | 0.786 | 0.275 | 0.119 | 0.423 |  | 0.609 | 0.149 | 0.0917 | 0.469 | 0.395 | 0.364 | 0.0656 | 0.0542 | 0.445 | 0.504 | 0.244 | 0.0396 | 0.0613
HCC-15 | 0.855 | 0.716 | 0.461 | 0.152 | 0.11 | 0.227 | 0.378 | 0.259 | 0.112 | 0.0946 | 0.486 | 0.383 | 0.204 | 0.122 | 0.0883 | 0.713 | 0.635 | 0.269 | 0.104 | 0.127
HCC-44 | 0.818 | 0.815 | 0.503 | 0.123 | 0.104 | 0.977 | 0.935 | 0.874 | 0.387 | 0.225 | 0.193 | 0.164 | 0.106 | 0.0862 | 0.118 | 0.626 | 0.484 | 0.216 | 0.161 | 0.187
HCC-78 | 0.314 | 0.345 | 0.245 | 0.257 | 0.257 | 0.949 | 0.54 | 0.544 | 0.642 | 0.682 | 0.851 | 0.837 | 0.495 | 0.446 | 0.22 | 0.444 | 0.414 | 0.343 | 0.244 | 0.288
